Test results from the supplement of paper PMC10307832.

Tests used:
[1] = compound: C[C@@H](Oc1cc(-c2cnn(C3CCNCC3)c2)cnc1N)c1c(Cl)ccc(F)c1Cl [Crizotinib] + C[C@]1(O)C[C@@H](c2nc(-c3ccc4ccc(-c5ccccc5)nc4c3)c3c(N)nccn32)C1 [Linsitinib] (partner 1 µM); assay: relative viability (nuclei count vs DMSO), 5 days (fraction); higher = more cells survive
In short: (§1)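 Five library-drug doses in √10 steps were combined with a fixed anchor-drug dose, or a single drug was given alone, by pin tool to lung cancer cell lines in 1536-well plates the day after seeding. Nuclei were stained and counted after 5 days. Relative viability is the nuclei count in treated wells over that in vehicle wells, taken as the median of duplicate plates.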

[2] = compound: C[C@@H](Oc1cc(-c2cnn(C3CCNCC3)c2)cnc1N)c1c(Cl)ccc(F)c1Cl [Crizotinib] + Cc1nc(NC(=O)N2CCC[C@H]2C(N)=O)sc1-c1ccnc(C(C)(C)C(F)(F)F)c1 [Alpelisib] (partner 2 µM); assay: as above
In short: as §1

NCI-H596
relative viability ([1]; first compound 0.01 µM): 0.971
relative viability ([1]; first compound 0.03162 µM): 1.16
relative viability ([1]; first compound 0.1 µM): 1.07
relative viability ([1]; first compound 0.3162 µM): 1.19
relative viability ([1]; first compound 1 µM): 1.15
relative viability ([2]; first compound 0.01 µM): 0.396
relative viability ([2]; first compound 0.03162 µM): 0.528
relative viability ([2]; first compound 0.1 µM): 0.509
relative viability ([2]; first compound 0.3162 µM): 0.564
relative viability ([2]; first compound 1 µM): 0.481

NCI-H647
relative viability ([1]; first compound 0.01 µM): 1.2
relative viability ([1]; first compound 0.03162 µM): 0.92
relative viability ([1]; first compound 0.1 µM): 1.12
relative viability ([1]; first compound 0.3162 µM): 1.04
relative viability ([1]; first compound 1 µM): 1.2
relative viability ([2]; first compound 0.01 µM): 1.08
relative viability ([2]; first compound 0.03162 µM): 1.16
relative viability ([2]; first compound 0.1 µM): 1.02
relative viability ([2]; first compound 0.3162 µM): 0.933
relative viability ([2]; first compound 1 µM): 1.01

NCI-H650
relative viability ([1]; first compound 0.01 µM): 0.858
relative viability ([1]; first compound 0.03162 µM): 0.868
relative viability ([1]; first compound 0.3162 µM): 0.596
relative viability ([1]; first compound 1 µM): 0.894
relative viability ([2]; first compound 0.01 µM): 0.955
relative viability ([2]; first compound 0.03162 µM): 1.2
relative viability ([2]; first compound 0.1 µM): 1.06
relative viability ([2]; first compound 0.3162 µM): 1.06
relative viability ([2]; first compound 1 µM): 1.17

NCI-H661
relative viability ([1]; first compound 0.01 µM): 0.552
relative viability ([1]; first compound 0.03162 µM): 0.472
relative viability ([1]; first compound 0.1 µM): 0.521
relative viability ([1]; first compound 0.3162 µM): 0.582
relative viability ([1]; first compound 1 µM): 0.759
relative viability ([2]; first compound 0.01 µM): 0.665
relative viability ([2]; first compound 0.03162 µM): 0.684
relative viability ([2]; first compound 0.1 µM): 0.615
relative viability ([2]; first compound 0.3162 µM): 0.699
relative viability ([2]; first compound 1 µM): 0.725

NCI-H727
relative viability ([1]; first compound 0.01 µM): 0.305
relative viability ([1]; first compound 0.03162 µM): 0.282
relative viability ([1]; first compound 0.1 µM): 0.261
relative viability ([1]; first compound 0.3162 µM): 0.271
relative viability ([1]; first compound 1 µM): 0.409
relative viability ([2]; first compound 0.01 µM): 0.655
relative viability ([2]; first compound 0.03162 µM): 0.575
relative viability ([2]; first compound 0.1 µM): 0.583
relative viability ([2]; first compound 0.3162 µM): 0.674
relative viability ([2]; first compound 1 µM): 0.685

NCI-H838
relative viability ([1]; first compound 0.01 µM): 0.938
relative viability ([1]; first compound 0.03162 µM): 1.05
relative viability ([1]; first compound 0.3162 µM): 0.882
relative viability ([1]; first compound 1 µM): 1.01
relative viability ([2]; first compound 0.01 µM): 0.997
relative viability ([2]; first compound 0.1 µM): 1.03
relative viability ([2]; first compound 1 µM): 0.964

NCI-H1299
relative viability ([1]; first compound 0.01 µM): 0.988
relative viability ([1]; first compound 0.03162 µM): 0.992
relative viability ([1]; first compound 0.1 µM): 1.02
relative viability ([1]; first compound 0.3162 µM): 0.99
relative viability ([1]; first compound 1 µM): 0.984
relative viability ([2]; first compound 0.01 µM): 1.12
relative viability ([2]; first compound 0.03162 µM): 1.03
relative viability ([2]; first compound 0.1 µM): 0.999
relative viability ([2]; first compound 0.3162 µM): 1.13
relative viability ([2]; first compound 1 µM): 1

NCI-H1355
relative viability ([1]; first compound 0.01 µM): 0.869
relative viability ([1]; first compound 0.03162 µM): 0.82
relative viability ([1]; first compound 0.1 µM): 0.811
relative viability ([1]; first compound 0.3162 µM): 0.799
relative viability ([1]; first compound 1 µM): 0.867
relative viability ([2]; first compound 0.01 µM): 0.832
relative viability ([2]; first compound 0.03162 µM): 0.806
relative viability ([2]; first compound 0.1 µM): 0.857
relative viability ([2]; first compound 0.3162 µM): 0.849
relative viability ([2]; first compound 1 µM): 0.878

NCI-H1395
relative viability ([1]; first compound 0.01 µM): 1.07
relative viability ([1]; first compound 0.03162 µM): 1.17
relative viability ([1]; first compound 0.1 µM): 0.944
relative viability ([1]; first compound 0.3162 µM): 1.01
relative viability ([1]; first compound 1 µM): 1.03
relative viability ([2]; first compound 0.01 µM): 0.996
relative viability ([2]; first compound 0.03162 µM): 0.928
relative viability ([2]; first compound 0.1 µM): 1.09
relative viability ([2]; first compound 0.3162 µM): 1.11
relative viability ([2]; first compound 1 µM): 1.26

NCI-H1437
relative viability ([1]; first compound 0.01 µM): 0.996
relative viability ([1]; first compound 0.1 µM): 1.03
relative viability ([1]; first compound 0.3162 µM): 0.996
relative viability ([1]; first compound 1 µM): 1.04
relative viability ([2]; first compound 0.01 µM): 0.869
relative viability ([2]; first compound 0.03162 µM): 0.973
relative viability ([2]; first compound 0.1 µM): 0.925
relative viability ([2]; first compound 0.3162 µM): 0.938
relative viability ([2]; first compound 1 µM): 0.907

NCI-H1563
relative viability ([1]; first compound 0.01 µM): 1.18
relative viability ([1]; first compound 0.03162 µM): 1.12
relative viability ([1]; first compound 0.1 µM): 1.22
relative viability ([1]; first compound 0.3162 µM): 1.3
relative viability ([1]; first compound 1 µM): 1.27
relative viability ([2]; first compound 0.01 µM): 0.85
relative viability ([2]; first compound 0.03162 µM): 0.838
relative viability ([2]; first compound 0.1 µM): 1.03
relative viability ([2]; first compound 0.3162 µM): 0.938
relative viability ([2]; first compound 1 µM): 0.782

NCI-H1651
relative viability ([1]; first compound 0.01 µM): 1.01
relative viability ([1]; first compound 0.03162 µM): 1.01
relative viability ([1]; first compound 0.1 µM): 0.955
relative viability ([1]; first compound 0.3162 µM): 1.06
relative viability ([1]; first compound 1 µM): 1.07
relative viability ([2]; first compound 0.01 µM): 0.823
relative viability ([2]; first compound 0.03162 µM): 0.933
relative viability ([2]; first compound 0.1 µM): 0.858
relative viability ([2]; first compound 1 µM): 0.965

NCI-H1666
relative viability ([1]; first compound 0.01 µM): 0.825
relative viability ([1]; first compound 0.03162 µM): 0.877
relative viability ([1]; first compound 0.1 µM): 0.774
relative viability ([1]; first compound 0.3162 µM): 0.871
relative viability ([1]; first compound 1 µM): 0.665
relative viability ([2]; first compound 0.01 µM): 0.964
relative viability ([2]; first compound 0.1 µM): 1
relative viability ([2]; first compound 0.3162 µM): 0.984
relative viability ([2]; first compound 1 µM): 0.959

NCI-H1703
relative viability ([1]; first compound 0.01 µM): 0.773
relative viability ([1]; first compound 0.03162 µM): 0.852
relative viability ([1]; first compound 0.1 µM): 0.727
relative viability ([1]; first compound 0.3162 µM): 0.777
relative viability ([1]; first compound 1 µM): 0.654
relative viability ([2]; first compound 0.01 µM): 0.285
relative viability ([2]; first compound 0.03162 µM): 0.299
relative viability ([2]; first compound 0.1 µM): 0.329
relative viability ([2]; first compound 0.3162 µM): 0.364
relative viability ([2]; first compound 1 µM): 0.366

NCI-H1734
relative viability ([1]; first compound 0.01 µM): 0.888
relative viability ([1]; first compound 0.03162 µM): 0.843
relative viability ([1]; first compound 0.1 µM): 0.851
relative viability ([1]; first compound 1 µM): 0.82
relative viability ([2]; first compound 0.01 µM): 0.659
relative viability ([2]; first compound 0.03162 µM): 0.646
relative viability ([2]; first compound 0.1 µM): 0.661
relative viability ([2]; first compound 1 µM): 0.633

NCI-H1755
relative viability ([1]; first compound 0.01 µM): 0.872
relative viability ([1]; first compound 0.1 µM): 1.07
relative viability ([1]; first compound 0.3162 µM): 0.964
relative viability ([1]; first compound 1 µM): 0.978
relative viability ([2]; first compound 0.01 µM): 0.899
relative viability ([2]; first compound 0.03162 µM): 0.844
relative viability ([2]; first compound 0.1 µM): 0.938
relative viability ([2]; first compound 0.3162 µM): 0.902
relative viability ([2]; first compound 1 µM): 0.959

NCI-H1792
relative viability ([1]; first compound 0.01 µM): 0.519
relative viability ([1]; first compound 0.03162 µM): 0.558
relative viability ([1]; first compound 0.1 µM): 0.586
relative viability ([1]; first compound 0.3162 µM): 0.473
relative viability ([1]; first compound 1 µM): 0.559
relative viability ([2]; first compound 0.01 µM): 0.627
relative viability ([2]; first compound 0.03162 µM): 0.789
relative viability ([2]; first compound 0.1 µM): 0.658
relative viability ([2]; first compound 0.3162 µM): 0.663
relative viability ([2]; first compound 1 µM): 0.726
